Laboratory results reported in US9517204B2, “Pharmaceutical composition for inhalation” (SHIONOGI & CO., LTD., priority 2011, dated 2016).
Read-outs that look alike come from different tables or passages of the source. One block for each molecule: values may come before it.

Legend:
[1] = Pharmacokinetics 2: transmigration of pirfenidone to tissue after single-dose administration; design: species or system rats; details: rat, in vivo, po, 160 mg/kg
Method: Similarly to Example 5, single-dose administrations of pirfenidone orally and the formulation 1 by inhalation were performed in rats, and the amount of transmigration of pirfenidone to each tissue was monitored by UPLC/ESI-MS. When compared in dose (160 mg/kg) having an anti-inflammatory activity, while the amount of skin-transmigration of pirfenidone in 1 hour after administration was about 50 ng/g-tissue via inhalation (1 mg/kg), the amount via oral administration (160 mg/kg) was about 20 μg/g-tissue. From this, while the amount of medication in inhalation is 1/160 in the case of oral administration, the amount of skin transmigration in inhalation decreases to 1/400 of oral formulation. […] Thus, the respirable formulation of the present invention has an excellent effect.

[2] = Pharmacokinetics (1): plasma and tissues after oral and intratracheal administration; type: in vivo, rats; details: for Cmax / MRT / half-life / AUC(0-inf): rat
Method: However, the possibility of risk reduction of photodermatosis is not clear. In general, since drug-induced photodermatosis appear in the skin and eyes, the specific distribution of drug molecules in the skin and/or eyes could be a key consideration for evaluating the photodermatosis risk. Then, in order to verify the photosafety of the formulation 1, a pharmacokinetic study was undertaken after intratracheal administration of the formulation 1 at a pharmacologically effective dose (1 mg/kg). Additionally, since in the oral administration, both pharmaceutically effective and phototoxic dose (160 mg/kg) and pharmaceutically non-effective and non-phototoxic dose (30 mg/kg) are known, pharmacokinetic parameters were obtained after oral administration at both doses. Concentration-time curves of pirfenidone in the plasma, skin, lung, and eyes were obtained by UPLC/ESI-MS analysis after intratracheal and oral administrations. After oral administration of pirfenidone, plasma and lung concentrations of pirfenidone immediately reached the Cmax within 5 min and these concentrations decreased steadily with half lives of ca. 0.3-0.8 h.

[3] = Pharmacokinetics (3): skin transmigration in repeated-dose administrations; type: in vivo
Method: Results of having monitored the amount of skin transmigration of pirfenidone in repeated-dose administrations by oral and inhalation are shown in FIG. 8. Although a temporary elevation of the pirfenidone concentration in the skin was observed by pirfenidone oral administration (30, 160 mg/kg) also in repeated-dose administrations in every 12 hours, the elevation disappeared in about 6 hours after administration. […] From this, the systemic side effect is considered to be avoidable even when the respirable formulation is used repeatedly.

skin = experiment: Phototoxic reaction in oral administration of pirfenidone (skin color, color difference meter); type: in vivo, rats; details: for change of skin color compared to the control group: black light irradiation
Method: Hair of rats were carefully shaved by hair clipper, and pirfenidone was administered orally to the rats (160 mg/kg or 30 mg/kg), and the rats were irradiated with a black light. Colors of the skin before and after the light irradiation were evaluated with a color difference meter.

[4] = patients who have taken the oral agent; cited from earlier work
[5] = Reactive oxygen species (ROS) assay, photoreactivity testing; type: physicochemical
Excerpt: This assay was established to monitor the generation of ROS, such as singlet oxygen and superoxide, from photoirradiated chemicals, and ROS generation would be indicative of the photochemical reactivity of tested chemicals.
In contrast, 8-methoxypsoralen (MOP) is known as a phototoxic and photoreactive chemical. Although 8-MOP slightly exceeded pirfenidone in ROS generation, both chemicals were identified to be photoreactive, as shown in FIG. 3 (A). When such photoreactivity and photoirritability are taken into consideration, pirfenidone can be said to raise concerns about photostability.

Photostability testing = type: physicochemical; details: simulated sunlight (250 W/m^2)
Method: Here, in respirable formulation of pirfenidone, both liquid and dry powder formulations can be considered in theory. Then, to clarify the photochemical properties in more detail, photostability testing was carried out. […] In general, photosensitive chemicals in a solution state are far more prone to photodegradation than solid samples due to the high permeability of light and increased mobility of photochemically excited molecules and reactive species. From this, taken together with the result shown in FIG. 3 (B), dry powder formulation, rather than liquid formulation, is preferable as a respirable formulation of pirfenidone.

[6] = 30 mg/kg oral, UV +, after treatment
[7] = 30 mg/kg oral, UV +, initial value
[8] = 30 mg/kg oral, UV −, after treatment
[9] = 30 mg/kg oral, UV −, initial value
[10] = 160 mg/kg oral, UV +, after treatment
[11] = 160 mg/kg oral, UV +, initial value
[12] = 160 mg/kg oral, UV −, after treatment
[13] = 160 mg/kg oral, UV −, initial value

- concentration at 1 h [1]: ~20000 ng/g
- AUC0→∞ ([2]; eyes, rats, 30 mg/kg, p.o.): 8.33 ± 0.39 h · μg/g tissue
- AUC0→∞ ([2]; eyes, rats, 160 mg/kg, p.o.): 58.8 ± 1.3 h · μg/g tissue
- AUC0→∞ ([2]; lung, rats, 30 mg/kg, p.o.): 6.45 ± 0.43 h · μg/g tissue
- AUC0→∞ ([2]; lung, rats, 160 mg/kg, p.o.): 52.1 ± 1.0 h · μg/g tissue
- Cmax ([2]; po, eyes, rats, 30 mg/kg): 3950 ± 300 ng/g
- MRT ([2]; po, eyes, rats, 30 mg/kg): 1.06 ± 0.13 h
- half-life ([2]; po, eyes, rats, 30 mg/kg, p.o., read-out: t1/2 (converted)): 0.668 ± 0.18 h
- Cmax ([2]; po, eyes, rats, 160 mg/kg): 26000 ± 2600 ng/g
- MRT ([2]; po, eyes, rats, 160 mg/kg): 1.93 ± 0.051 h
- half-life ([2]; po, eyes, rats, 160 mg/kg, p.o., read-out: t1/2 (converted)): 1.06 ± 0.27 h
- Cmax ([2]; po, lung, rats, 30 mg/kg): 6460 ± 690 ng/g
- MRT ([2]; po, lung, rats, 30 mg/kg): 0.787 ± 0.16 h
- half-life ([2]; po, lung, rats, 30 mg/kg, p.o., read-out: t1/2 (converted)): 0.799 ± 0.24 h
- Cmax ([2]; po, lung, rats, 160 mg/kg): 37600 ± 5700 ng/g
- MRT ([2]; po, lung, rats, 160 mg/kg): 1.32 ± 0.041 h
- half-life ([2]; po, lung, rats, 160 mg/kg, p.o., read-out: t1/2 (converted)): 0.766 ± 0.16 h
- AUC(0-inf) ([2]; po, plasma, rats, 30 mg/kg): 14100 ± 920 ng·h/mL
- Cmax ([2]; po, plasma, rats, 30 mg/kg): 19.7 ± 0.93 µg/mL
- MRT ([2]; po, plasma, rats, 30 mg/kg): 0.667 ± 0.094 h
- half-life ([2]; po, plasma, rats, 30 mg/kg, p.o., read-out: t1/2 (converted)): 0.33 ± 0.02 h
- AUC(0-inf) ([2]; po, plasma, rats, 160 mg/kg): 152000 ± 10000 ng·h/mL
- Cmax ([2]; po, plasma, rats, 160 mg/kg): 135 ± 11 µg/mL
- MRT ([2]; po, plasma, rats, 160 mg/kg): 1.05 ± 0.075 h
- half-life ([2]; po, plasma, rats, 160 mg/kg, p.o., read-out: t1/2 (converted)): 0.53 ± 0.03 h
- Cmax ([2]; po, skin, rats, 30 mg/kg): 8160 ± 470 ng/g
- MRT ([2]; po, skin, rats, 30 mg/kg): 1.14 ± 0.12 h
- half-life ([2]; po, skin, rats, 30 mg/kg, p.o., read-out: t1/2 (converted)): 1.07 ± 0.28 h
- Cmax ([2]; po, skin, rats, 160 mg/kg): 32900 ± 2600 ng/g
- MRT ([2]; po, skin, rats, 160 mg/kg): 1.7 ± 0.043 h
- half-life ([2]; po, skin, rats, 160 mg/kg, p.o., read-out: t1/2 (converted)): 1.06 ± 0.24 h
- half-life ([2]; plasma and lung, oral administration (30 and 160 mg/kg), read-out: half lives): 0.3 to 0.8 h
- half-life ([2]; skin and eye, after oral dosing, read-out: half-life of elimination phase): 0.7 to 1.1 h
- time of reaching maximum levels ([2]; skin and eye, after oral dosing): ca. 0.5 h
- AUC0→∞ ([2]; skin, rats, 30 mg/kg, p.o.): 11.5 ± 0.51 h · μg/g tissue
- AUC0→∞ ([2]; skin, rats, 160 mg/kg, p.o.): 68.0 ± 1.4 h · μg/g tissue
- time after administration at which the elevation of skin concentration disappeared ([3]; oral 30, 160 mg/kg, repeated-dose every 12 hours): about 6 hours
- accumulation in skin ([3]; oral, repeated-dose administrations): did not show any accumulation trend
- ROS generation (singlet oxygen, superoxide), photoreactivity [5]: photoreactive
- degradation (Photostability testing; powder): no significant degradation
- apparent first-order degradation rate (Photostability testing; solution): 0.31 ± 0.03 h⁻¹
Compound: Cc1ccc(=O)n(-c2ccccc2)c1 [pirfenidone]
- ΔE, evaluation of color change (skin; 30 mg/kg oral, UV +): 2.40 ± 0.20
- L* (skin; [6]): 72.26
- a* (skin; [6]): 2.81
- b* (skin; [6]): 5.72
- L* (skin; [7]): 72.90
- a* (skin; [7]): 1.27
- b* (skin; [7]): 4.14
- ΔE, evaluation of color change (skin; 30 mg/kg oral, UV −): 1.47 ± 0.27
- L* (skin; [8]): 71.56
- a* (skin; [8]): 1.54
- b* (skin; [8]): −0.36
- L* (skin; [9]): 70.16
- a* (skin; [9]): 1.19
- b* (skin; [9]): −0.18
- change of skin color compared to the control group (skin; 30 mg/kg oral): significant change was not observed
- photodermatosis (skin; 30 mg/kg orally to rat): photodermatosis was not caused
- ΔE, evaluation of color change (skin; 160 mg/kg oral, UV +): 3.97 ± 0.59
- L* (skin; [10]): 72.35
- a* (skin; [10]): 2.06
- b* (skin; [10]): 9.17
- L* (skin; [11]): 71.05
- a* (skin; [11]): 0.89
- b* (skin; [11]): 5.67
- ΔE, evaluation of color change (skin; 160 mg/kg oral, UV −): 1.69 ± 0.24
- L* (skin; [12]): 71.04
- a* (skin; [12]): −1.04
- b* (skin; [12]): 4.88
- L* (skin; [13]): 70.59
- a* (skin; [13]): 0.09
- b* (skin; [13]): 3.67
- change of skin color compared to the control group (skin; 160 mg/kg oral): Change of skin color was intentionally observed
- expression frequency of drug-induced photodermatosis [4]: about 60%

- ROS generation (singlet oxygen, superoxide), photoreactivity [5]: no ability to generate ROS
Compound: COc1cc(O)c(C(=O)c2ccccc2)cc1S(=O)(=O)O [Sulisobenzone, sulisobenzone]

Compound: COc1c2occc2cc2ccc(=O)oc12 [Formulation 8-MOP, 8-methoxypsoralen]
- ROS generation (singlet oxygen, superoxide), photoreactivity ([5]; exposed to simulated sunlight (250 W/m^2)): photoreactive
